From publication PMC8741604 (Translational Oncology, 2022)
Where a SMILES comes first, the peptide text is derived from it.

B1: murine PD-1: murine PD-1, literature affinity for human PD-L1 (protein, UniProt Q02242 25-288, looked up)
Programmed cell death protein …: LEVPNGPWRSLTFYPAWLTVSEGANATFTCSLSNWSEDLMLNWNRLSPSNQTEKQAAFCNGLSQPVQDARFQIIQLPNRHDFHMNILDTRRNDSGIYLCGAISLHPKAKIEESPGAELVVTERILETSTRYPSPSPKPEGRFQGMVIGIMSALVGIPVLLLLAWALAVFCSTSMSEARGAGSKDDTLKEEPSAAPVPSVAYEELDFQGREKTPELPTACVHTEYATIVFTEGLGASAMGRRGSADGLQGPRPPRHEDGHCSWPL

Assays:
[1] = test system: CT26 murine colon carcinoma cells; experiment: MTT cell viability without T cells; type: cell-based
human PD-L1 [2] = molecular target: T1, human PD-L1 (Homo sapiens, UniProt Q9NZQ7); experiment: Bio-layer interferometry binding to PD-L1; conditions: for Affinity for PD-L1 in words: bio-layer interferometry
[3] = test system: CT26 murine colon carcinoma tumor in BALB/c mice; experiment: Subcutaneous CT26 syngeneic tumor model, pre-treated with CT26 cell lysate; type: in vivo, mouse; conditions: PD-L1ip3 peptide only
[4] = test system: CT26 murine colon carcinoma tumor in BALB/c mice; experiment: Subcutaneous CT26 syngeneic tumor model, without pre-immunization; type: in vivo, mouse; conditions: PD-L1ip3 peptide alone, no pre-immunization, vs untreated CT26
human PD-L1 [5] = molecular target: T1, human PD-L1; conditions: cited from earlier work

T1 sequence (Q9NZQ7 19-290): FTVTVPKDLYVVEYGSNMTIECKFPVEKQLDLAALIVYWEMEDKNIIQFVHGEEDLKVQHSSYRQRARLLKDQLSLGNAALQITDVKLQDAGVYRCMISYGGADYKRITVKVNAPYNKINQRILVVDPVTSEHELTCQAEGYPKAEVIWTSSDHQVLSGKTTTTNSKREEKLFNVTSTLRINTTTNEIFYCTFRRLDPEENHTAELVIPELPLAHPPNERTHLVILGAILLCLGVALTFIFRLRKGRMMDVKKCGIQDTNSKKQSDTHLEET

| Molecule | CT26 cell viability at 72 h, 10 µg/ml ([1]; MTT, 10 µg/ml, 72 h, not significantly different from PBS) | Affinity for PD-L1 in words (human PD-L1 [2]) | Cytotoxicity of the peptide (summary statement) ([1]; peptide alone, CT26 cells) | Affinity for PD-L1 relative to natural partner PD-1 (human PD-L1 [2]; KD by BLI compared with literature PD-1 KD) | Tumor growth in words, peptide alone, pre-immunized [3] | Tumor growth in words, peptide alone [4] | Affinity of murine PD-1 for human PD-L1 versus human PD-1 (human PD-L1 [5]) |
| --- | --- | --- | --- | --- | --- | --- | --- |
| VLIKIPWLRLPGCGTQ [PD-L1ip3SC] | slight decrease of cell viability | very weak binding |  |  |  |  |  |
| CC[C@H](C)[C@H](NC(=O)[C@H](CC(C)C)NC(=O)[C@@H]1CCCN1C(=O)[C@H](CCCCN)NC(=O)[C@H](CC(C)C)NC(=O)[C@H](CCCNC(=N)N)NC(=O)[C@@H](NC(=O)CN)[C@@H](C)O)C(=O)N[C@H](C(=O)N[C@@H](CS)C(=O)N[C@H](C(=O)N[C@@H](CCC(N)=O)C(=O)N[C@@H](Cc1c[nH]c2ccccc12)C(=O)N1CCC[C@H]1C(=O)NCC(=O)N[C@@H](CC(C)C)C(=O)O)C(C)C)[C@@H](C)CC [PD-L1ip3] (H-GTRLKPLIICVQWPGL-OH) |  | affinity in the micromolar range | negligible cytotoxicity | only a few times weaker | minimal effect on tumor growth | neither transduction of a scrambled sequence peptide gene by the adenovirus vector (Ad-PD-L1ip3SC) nor PD-L1ip3 in peptide form alone showed a statistically significant change in tumor growth |  |
| B1 |  |  |  |  |  |  | shows similarity to that of human PD-1 for human PD-L1 |
